Results: ChEMBL document CHEMBL4002569, “Improved anticancer and antiparasitic activity of new lawsone Mannich bases” (Eur J Med Chem, 2017)
The source made the active and inactive calls. The calls are words filed in the database; no cut-off is given here.

Legend:
PC-3 [1] = test: Antiproliferative activity against human PC3 cells at >10 to 25 uM after 96 hrs by MTT assay; format: functional, cell-based
BXPC-3 [2] = test: Antiproliferative activity against human BxPC3 cells at <10 uM after 96 hrs by MTT assay; format: functional, cell-based
PC-3 [3] = test: Antiproliferative activity against human PC3 cells at <10 uM after 96 hrs by MTT assay; format: functional, cell-based
BXPC-3 [4] = test: Antiproliferative activity against human BxPC3 cells at >10 to 25 uM after 96 hrs by MTT assay; format: functional, cell-based
MDA-MB-231 [5] = test: Antiproliferative activity against human MDA-MB-231 cells at >10 to 25 uM after 96 hrs by MTT assay; format: functional, cell-based
MDA-MB-231 [6] = test: Antiproliferative activity against human MDA-MB-231 cells at <10 uM after 96 hrs by MTT assay; format: functional, cell-based
Entamoeba histolytica [7] = test: Antiamoebic activity against Entamoeba histolytica assessed as growth inhibition at 200 ug/ml after 48 hrs by trypan blue dye-based hemocytometer relative to control; format: functional; details: read-out: GI
Entamoeba histolytica [8] = test: Antiamoebic activity against Entamoeba histolytica assessed as growth inhibition at 200 ug/ml after 24 hrs by trypan blue dye-based hemocytometer relative to control; format: functional; details: read-out: GI
Entamoeba histolytica [9] = test: Antiamoebic activity against Entamoeba histolytica assessed as growth inhibition at 200 ug/ml after 72 hrs by trypan blue dye-based hemocytometer relative to control; format: functional; details: read-out: GI
[10] = test system: Trypanosoma brucei brucei; test: Antitrypanosomal activity against bloodstream trypomastigote form of Trypanosoma brucei brucei 65.3 […] after 72 hrs by Alamar Blue assay; format: functional, cell-based; details: Trypanosoma brucei, 65.3, 72 h
518A2 [11] = test: Induction of reactive oxygen species generation in human 518A2 cells at 0.5 uM after 24 hrs by NBT assay relative to control; format: functional
PANC-1 = test: Antiproliferative activity against human PANC1 cells after 72 hrs by MTT assay; format: functional, cell-based; details: PANC-1, 72 h
HeLa [12] = test: Cytotoxicity against human HeLa cells assessed as effect on cytoskeleton at 10 uM after 1 to 9 hrs by DAPI staining-based fluorescence microscopic method; format: cell-based
HeLa [13] = test: Cytotoxicity against human HeLa cells assessed as effect on cell viability at 10 uM after 1 to 9 hrs by DAPI staining-based fluorescence microscopic method
[14] = test system: Trypanosoma brucei brucei; test: Antitrypanosomal activity against bloodstream trypomastigote form of Trypanosoma brucei brucei 65.3 assessed as deformation of microtubule cytoskeleton at 1 uM after 0.5 to 24 hrs by DAPI staining-based fluorescence microscopic method; format: functional
[15] = test system: Trypanosoma brucei brucei; test: Antitrypanosomal activity against bloodstream trypomastigote form of Trypanosoma brucei brucei 65.3 assessed as cell debris of dead and lysed parasite at 10 uM after 12 to 24 hrs by DAPI staining-based fluorescence microscopic method; format: functional
518A2 [16] = test: Induction of reactive oxygen species generation in human 518A2 cells at 0.1 uM after 24 hrs by NBT assay relative to control; format: functional
[17] = test system: Trypanosoma brucei brucei; test: Antitrypanosomal activity against bloodstream trypomastigote form of Trypanosoma brucei brucei 65.3 assessed as decrease in parasite motility at 1 uM after 0.5 to 24 hrs by DAPI staining-based fluorescence microscopic method relative to control; format: functional
518A2 [18] = test: Antiproliferative activity against human 518A2 cells after 72 hrs by MTT assay; format: functional, cell-based; details: 518A2, 72 h
PC-3 [19] = test: Antiproliferative activity against human PC3 cells at 1 to 50 uM after 96 hrs by MTT assay; format: functional, cell-based
BXPC-3 [20] = test: Antiproliferative activity against human BxPC3 cells at 1 to 50 uM after 96 hrs by MTT assay; format: functional, cell-based
HCT-116 = test: Antiproliferative activity against human HCT116 cells after 72 hrs by MTT assay; format: functional, cell-based; details: HCT-116, 72 h
MDA-MB-231 [21] = test: Antiproliferative activity against human MDA-MB-231 cells at 1 to 50 uM after 96 hrs by MTT assay; format: functional, cell-based
KB-V1 = test: Antiproliferative activity against vinblastine-resistant human KBV1 cells after 72 hrs by MTT assay; format: functional, cell-based; details: KB-V1, 72 h
PC-3 [22] = test: Antiproliferative activity against human PC3 cells at <25 uM after 96 hrs by MTT assay; format: functional, cell-based
BXPC-3 [23] = test: Antiproliferative activity against human BxPC3 cells at <25 uM after 96 hrs by MTT assay; format: functional, cell-based
MDA-MB-231 [24] = test: Antiproliferative activity against human MDA-MB-231 cells at <25 uM after 96 hrs by MTT assay; format: functional, cell-based

Structure (SMILES) | growth inhibition (GI) (PC-3 [1]) | growth inhibition (GI) (BXPC-3 [2]) | growth inhibition (GI) (PC-3 [3]) | growth inhibition (GI) (BXPC-3 [4]) | growth inhibition (GI) (MDA-MB-231 [5]) | growth inhibition (GI) (MDA-MB-231 [6]) | IC50 (PANC-1) [µM] | IC50 (518A2 [18]) [µM] | IC50 (HCT-116) [µM] | IC50 (KB-V1) [µM] | also measured
CCCCCCCNC(C1=C(O)C(=O)c2ccccc2C1=O)c1ccc(F)c(F)c1 (stereo not drawn) | Active | inactive | inactive | Active | Active | inactive |  |  |  |  | 
O=C1C(O)=C(C(NCc2ccccn2)c2ccc(F)c(F)c2)C(=O)c2ccccc21 (stereo not drawn) | Active | inactive | inactive | Active | Active | inactive |  |  |  |  | 
Cc1ncc([N+](=O)[O-])n1CCO [METRONIDAZOLE] |  |  |  |  |  |  |  |  |  |  | inhibition of growth at 200 µg/mL (Entamoeba histolytica [7]): 58.7%; inhibition of growth at 200 µg/mL (Entamoeba histolytica [8]): 54.1%; inhibition of growth at 200 µg/mL (Entamoeba histolytica [9]): 60.4%
N=C(N)c1ccc(OCCCCCOc2ccc(C(=N)N)cc2)cc1 [PENTAMIDINE] |  |  |  |  |  |  |  |  |  |  | IC50 [10]: 0.005 µM
CCCCCCCCCCCCCCNC(C1=C(O)C(=O)c2ccccc2C1=O)c1ccccn1 (stereo not drawn) |  |  |  |  |  |  | 3.93 | 3.03 | 2.41 | 0.43 | Activity (518A2 [11]): 70%; Activity (HeLa [12]): Non-Toxic; IC50 [10]: 0.35 µM; Activity (HeLa [13]): Non-Toxic; Activity [14]: Active; Activity [15]: Active; Activity (518A2 [16]): 50%; Activity [17]: Active; growth inhibition (GI) (PC-3 [19]): Active; growth inhibition (GI) (BXPC-3 [20]): Active; growth inhibition (GI) (MDA-MB-231 [21]): Active
CCCCCCCNC(C1=C(O)C(=O)c2ccccc2C1=O)c1ccc(O)c(OC)c1 (stereo not drawn) |  |  |  |  |  |  |  |  |  |  | growth inhibition (GI) (PC-3 [22]): inactive; growth inhibition (GI) (BXPC-3 [23]): inactive; growth inhibition (GI) (MDA-MB-231 [24]): inactive
CCCCCCCCCCCCCCNC(C1=C(O)C(=O)c2ccccc2C1=O)c1ccc(F)c(F)c1 (stereo not drawn) | Active | inactive | inactive | Active | Active | inactive |  |  |  |  | 
O=C1C(O)=C(C(NCc2ccc(F)c(F)c2)c2ccccn2)C(=O)c2ccccc21 (stereo not drawn) |  |  |  |  |  |  | 7.72 | 3.05 | 5.68 | 1.56 | 
O=C1C(O)=C(C(NCc2ccccn2)c2ccccn2)C(=O)c2ccccc21 (stereo not drawn) |  |  |  |  |  |  | 17.6 | 6.98 | 6.77 | 8.61 | 
